Where “and” joins values, the source holds several entries; their conditions need not be identical. Equal entries are not always repeated. Inconclusive results and toxic doses are left out. Rule for the calls: active = survival T/C of 150% or more; inactive = T/C below 125% in these data.
Tested on: P388 leukemia ip, CD2F1 mice, survival T/C
Assay: NCI In Vivo Anticancer Drug Screen. Data for tumor model P388 Leukemia (intraperitoneal) in CD2F1 (CDF1) mice
Conditions: endpoint: median survival time, higher = longer survival
Method in brief: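 Mice carrying the transplanted tumor received test compound or vehicle. Survival was recorded in each group, and the value is the treated-group measurement divided by that of the vehicle-treated control group.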

[1] = dose: 50.0 mg/kg/injection, schedule: Q01DX005 (ip), vehicle: saline with Tween-80
[2] = dose: 100.0 mg/kg/injection, schedule: Q01DX005 (ip), vehicle: saline with Tween-80
[3] = dose: 200.0 mg/kg/injection, schedule: Q01DX005 (ip), vehicle: saline with Tween-80
[4] = dose: 100.0 mg/kg/injection, schedule: Q04DX003 (ip), vehicle: saline with Tween-80
[5] = dose: 50.0 mg/kg/injection, schedule: Q01DX009 (ip), vehicle: saline with Tween-80
[6] = dose: 100.0 mg/kg/injection, schedule: Q01DX009 (ip), vehicle: saline with Tween-80
[7] = dose: 200.0 mg/kg/injection, schedule: Q01DX009 (ip), vehicle: saline with Tween-80
[8] = dose: 25.0 mg/kg/injection, schedule: Q01DX009 (ip), vehicle: saline with Tween-80
[9] = dose: 50.0 mg/kg/injection, schedule: Q01DX009 (ip), vehicle: Klucel (hydroxypropylcellulose) (HPC)
[10] = dose: 60.0 mg/kg/injection, schedule: Q01DX005 (ip), vehicle: Klucel (hydroxypropylcellulose) (HPC)
[11] = dose: 120.0 mg/kg/injection, schedule: Q01DX005 (ip), vehicle: Klucel (hydroxypropylcellulose) (HPC)
[12] = dose: 240.0 mg/kg/injection, schedule: Q01DX005 (ip), vehicle: Klucel (hydroxypropylcellulose) (HPC)
[13] = dose: 60.0 mg/kg/injection, schedule: Q01DX005 (ip), vehicle: saline with Tween-80
[14] = dose: 120.0 mg/kg/injection, schedule: Q01DX005 (ip), vehicle: saline with Tween-80
[15] = dose: 240.0 mg/kg/injection, schedule: Q01DX005 (ip), vehicle: saline with Tween-80
[16] = dose: 100.0 mg/kg/injection, schedule: Q04DX003 (ip), vehicle: Klucel (hydroxypropylcellulose) (HPC)
[17] = dose: 200.0 mg/kg/injection, schedule: Q04DX003 (ip), vehicle: Klucel (hydroxypropylcellulose) (HPC)

Measured: T/C

CCC12OCCN1CCO2
inactive: dose: 200.0 mg/kg/injection, schedule: Q01DX009 (ip), vehicle: water 100 % of control | dose: 400.0 mg/kg/injection, schedule: Q01DX009 (ip), vehicle: water 100 % of control | dose: 800.0 mg/kg/injection, schedule: Q01DX009 (ip), vehicle: water 102 % of control | dose: 1600.0 mg/kg/injection, schedule: Q01DX009 (ip), vehicle: water 106 % of control

CC(C)(C)SSC(=S)C(c1ccccc1)c1ccccc1
inactive: dose: 50.0 mg/kg/injection, schedule: Q01DX005 (ip), vehicle: saline + Tween-80 + alcohol 105 % of control | dose: 100.0 mg/kg/injection, schedule: Q01DX005 (ip), vehicle: saline + Tween-80 + alcohol 107 % of control | dose: 200.0 mg/kg/injection, schedule: Q01DX005 (ip), vehicle: saline + Tween-80 + alcohol 96 % of control

CP(=O)(NN)c1ccccc1 (stereo not given)
inactive: dose: 12.5 mg/kg/injection, schedule: Q01DX009 (ip), vehicle: water 89 % of control | dose: 25.0 mg/kg/injection, schedule: Q01DX009 (ip), vehicle: water 96 % of control | dose: 50.0 mg/kg/injection, schedule: Q01DX009 (ip), vehicle: water 101 % of control

CCOC(=O)C1(C(O)(C2CC2)C2(C(=O)OCC)CC2)CC1
inactive: [1] 100 % of control | [2] 102 % of control | [3] 100 % of control

CCCCN(CCCC)c1cc(=O)nc2ccccn12
inactive: dose: 60.0 mg/kg/injection, schedule: Q01DX005 (ip), vehicle: saline 101 % of control | dose: 120.0 mg/kg/injection, schedule: Q01DX005 (ip), vehicle: saline 101 % of control | dose: 240.0 mg/kg/injection, schedule: Q01DX005 (ip), vehicle: saline 100 % of control

COc1cc2c(c(OC)c1OC)-c1ccc(O)c(=O)cc1C(N)CC2 (stereo not given)
inactive: dose: 3.12 mg/kg/injection, schedule: Q01DX008 (ip), vehicle: saline 101 % of control and 97 % of control | dose: 6.25 mg/kg/injection, schedule: Q01DX008 (ip), vehicle: saline 100 % of control and 102 % of control | dose: 12.5 mg/kg/injection, schedule: Q01DX008 (ip), vehicle: saline 102 % of control and 105 % of control | dose: 25.0 mg/kg/injection, schedule: Q01DX008 (ip), vehicle: saline 102 % of control and 105 % of control | dose: 50.0 mg/kg/injection, schedule: Q01DX008 (ip), vehicle: saline 105 % of control and 110 % of control | dose: 100.0 mg/kg/injection, schedule: Q01DX008 (ip), vehicle: saline 109 % of control and 113 % of control

CC(c1ccccc1)C1(C)NC(=O)NC1=O (stereo not given)
inactive: [4] 97 % of control | dose: 200.0 mg/kg/injection, schedule: Q04DX003 (ip), vehicle: saline with Tween-80 101 % of control

O=C1c2ccccc2C2(O)C3c4ccccc4CCN3CN12 (stereo not given)
inactive: dose: 50.0 mg/kg/injection, schedule: Q01DX005 (ip), vehicle: Klucel (hydroxypropylcellulose) (HPC) 100 % of control | dose: 100.0 mg/kg/injection, schedule: Q01DX005 (ip), vehicle: Klucel (hydroxypropylcellulose) (HPC) 101 % of control | dose: 200.0 mg/kg/injection, schedule: Q01DX005 (ip), vehicle: Klucel (hydroxypropylcellulose) (HPC) 101 % of control

CC1(C(Cl)(Cl)Cl)C=CC(=O)C=C1
inactive: [5] 99 % of control | [6] 107 % of control | [7] 99 % of control

O=C(c1ccc(-c2ccccc2)cc1)C1(Br)CCCCC1
inactive: [6] 100 % of control | [7] 100 % of control | dose: 400.0 mg/kg/injection, schedule: Q01DX009 (ip), vehicle: saline with Tween-80 100 % of control

N#Cc1nccnc1C#N
inactive: dose: 12.5 mg/kg/injection, schedule: Q01DX009 (ip), vehicle: saline with Tween-80 86 % of control | [8] 105 % of control | [9] 102 % of control | [5] 101 % of control

Br/N=C1/C=CC=C/C1=N/Br
inactive: dose: 25.0 mg/kg/injection, schedule: Q01DX005 (ip), vehicle: saline 105 % of control and 108 % of control | dose: 50.0 mg/kg/injection, schedule: Q01DX005 (ip), vehicle: saline 107 % of control and 110 % of control | dose: 100.0 mg/kg/injection, schedule: Q01DX005 (ip), vehicle: saline 100 % of control and 107 % of control and 123 % of control | dose: 200.0 mg/kg/injection, schedule: Q01DX005 (ip), vehicle: saline 98 % of control and 100 % of control and 106 % of control

N#CC1=C(NC(N)=O)CCCC1
inactive: [10] 106 % of control | [11] 100 % of control | [12] 106 % of control

Cc1ccc2c(c1)Sc1c(ccc3ccccc13)N2
inactive: [1] 103 % of control | [2] 102 % of control | [3] 97 % of control

O=C(c1ccccc1)C(C(=O)c1ccccc1)C(c1ccccc1)(c1ccccc1)c1ccccc1
inactive: dose: 12.5 mg/kg/injection, schedule: Q04DX003 (ip), vehicle: saline with Tween-80 97 % of control | dose: 25.0 mg/kg/injection, schedule: Q04DX003 (ip), vehicle: saline with Tween-80 99 % of control and 98 % of control | dose: 50.0 mg/kg/injection, schedule: Q04DX003 (ip), vehicle: saline with Tween-80 87 % of control | [4] 90 % of control and 91 % of control | dose: 400.0 mg/kg/injection, schedule: Q04DX003 (ip), vehicle: saline with Tween-80 88 % of control

CCOP(=O)(OCC)C(C)NC(=O)C(C)NC(=O)c1cn(CC)c2nc(C)ccc2c1=O (stereo not given)
inactive: dose: 100.0 mg/kg/injection, schedule: Q04DX002 (ip), vehicle: saline 97 % of control | dose: 200.0 mg/kg/injection, schedule: Q04DX002 (ip), vehicle: saline 97 % of control | dose: 400.0 mg/kg/injection, schedule: Q04DX002 (ip), vehicle: saline 95 % of control

CC(C)(C)OC(=O)NC(CCC(N)=O)C(=O)ON1C(=O)CCC1=O (stereo not given)
inactive: [1] 98 % of control | [2] 99 % of control | [3] 104 % of control

Nc1ncnc2c1c(-c1ccccc1)cn2-c1ccc(Cl)cc1
inactive: [13] 104 % of control | [14] 99 % of control | [15] 88 % of control

CSc1c(C)c(C)nn1-c1ccccc1
inactive: [13] 104 % of control | [14] 111 % of control | [15] 104 % of control

CC1C(c2ccccc2)=NN(C)c2ccccc21 (stereo not given)
inactive: [13] 97 % of control | [14] 102 % of control | [15] 90 % of control

CCCCC(=O)Nc1ncc([N+](=O)[O-])s1
inactive: dose: 25.0 mg/kg/injection, schedule: Q01DX009 (ip), vehicle: Klucel (hydroxypropylcellulose) (HPC) 110 % of control | [9] 102 % of control and 104 % of control and 116 % of control | dose: 100.0 mg/kg/injection, schedule: Q01DX009 (ip), vehicle: Klucel (hydroxypropylcellulose) (HPC) 101 % of control and 103 % of control and 113 % of control | dose: 200.0 mg/kg/injection, schedule: Q01DX009 (ip), vehicle: Klucel (hydroxypropylcellulose) (HPC) 105 % of control and 111 % of control and 123 % of control

CCCCCC(=O)O[C@H]1CC[C@@H]2[C@H]1[C@@H]1CC[C@H]3O[C@]31C2(C)C
inactive: [10] 111 % of control | [11] 111 % of control | [12] 121 % of control

NC(=S)N/N=C\c1nccc2ncccc12
inactive: dose: 6.25 mg/kg/injection, schedule: Q04DX002 (ip), vehicle: saline with Tween-80 113 % of control | dose: 12.5 mg/kg/injection, schedule: Q04DX002 (ip), vehicle: saline with Tween-80 124 % of control

S=C1SCCCN1c1ccccc1
inactive: [16] 100 % of control | [17] 110 % of control

COC(=O)C/C(C(=O)OC)=C1\CCCC2=C1N1CCCC1C2(CC(=O)OC)C(=O)OC (stereo not given)
inactive: dose: 12.5 mg/kg/injection, schedule: Q01DX001 (ip), vehicle: Klucel (hydroxypropylcellulose) (HPC) 97 % of control | dose: 25.0 mg/kg/injection, schedule: Q01DX001 (ip), vehicle: Klucel (hydroxypropylcellulose) (HPC) 98 % of control | dose: 50.0 mg/kg/injection, schedule: Q01DX001 (ip), vehicle: Klucel (hydroxypropylcellulose) (HPC) 100 % of control

CCCCC1(O)C(=O)N(c2ccccc2)N(c2ccccc2)C1=O
inactive: [10] 102 % of control | [11] 102 % of control | [12] 96 % of control

NC(=S)c1cccc(C=O)n1
inactive: [8] 99 % of control | [5] 99 % of control | dose: 50.0 mg/kg/injection, schedule: Q04DX003 (ip), vehicle: Klucel (hydroxypropylcellulose) (HPC) 110 % of control | [6] 97 % of control | [16] 112 % of control | [17] 114 % of control

Source: PubChem BioAssay AID330 (DTP/NCI, 2004)
